Experimental findings from patent US8642808B2, “Bis-aryl sulfonamides” (ChemoCentryx, Inc., priority 2002, dated 2014) are described below.

The target in data set [1] is T1, CCR9 (Homo sapiens, UniProt P51686).
T1 construct: CCR9-expressing cells (such as a T cell line MOLT-4 cells); host or cells: MOLT-4
T1 sequence (P51686 1-369): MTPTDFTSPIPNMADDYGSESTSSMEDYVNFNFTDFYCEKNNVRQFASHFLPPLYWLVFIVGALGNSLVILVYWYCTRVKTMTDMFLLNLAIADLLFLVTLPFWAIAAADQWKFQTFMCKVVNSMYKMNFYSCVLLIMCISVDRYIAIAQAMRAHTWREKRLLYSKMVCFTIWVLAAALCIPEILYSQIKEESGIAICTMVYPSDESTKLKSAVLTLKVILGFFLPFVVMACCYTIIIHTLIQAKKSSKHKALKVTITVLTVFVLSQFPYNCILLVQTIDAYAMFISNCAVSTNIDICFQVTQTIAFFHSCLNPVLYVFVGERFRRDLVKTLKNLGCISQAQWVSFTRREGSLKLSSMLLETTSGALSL
The experiment in a line: chemotaxis (conventional migration) assay and/or calcium mobilization (calcium flux) assay, TECK-stimulated MOLT-4 cells. The data set is classed as cell-based. The conditions noted are these: TECK-induced migration and/or calcium signal, read-out: activity (IC50) in either or both of the chemotaxis assay and calcium mobilization assays. How it is done: MOLT-4 cells were obtained from the American Type Culture Collection (Manassas, Va.) and cultured in RPMI tissue culture medium supplemented with 10% fetal calf serum (FCS) in a humidified 5% CO2 incubator at 37° C. Recombinant human chemokine protein TECK was obtained from R&D Systems (Minneapolis, Minn.). ChemoTX® chemotaxis microchambers were purchased from Neuro Probe (Gaithersburg, Md.). CyQUANT® cell proliferation kits were purchased from Molecular Probes (Eugene, Oreg.). Calcium indicator dye Fluo-4 AM was purchased from Molecular Devices (Mountain View, Calif.).
Conventional migration assay was used to determine the efficacy of potential receptor antagonists in blocking migration mediated through CCR9. This assay was routinely performed using the ChemoTX® microchamber system with a 5-μm pore-sized polycarbonate membrane. To begin such an assay, MOLT-4 cells were harvested by centrifugation of cell suspension at 1000 PRM on a GS-6R Beckman centrifuge. The cell pellet was resuspended in chemotaxis buffer (HBSS with 0.1% BSA) at 5×10^6 cells/mL. Test compounds at desired concentrations were prepared from 10 mM stock solutions by serial dilutions in chemotaxis buffer. An equal volume of cells and compounds were mixed and incubated at room temperature for 15 minutes. Afterwards, 20 μL of the mixture was transferred onto the porous membrane of a migration microchamber, with 29 μL of 50 nM chemokine TECK protein placed at the lower chamber. Following a 150-minute incubation at 37° C., during which cells migrated against the chemokine gradient, the assay was terminated by removing the cell drops from atop the filter. To quantify cells migrated across the membrane, 5 μL of 7X CyQUANT® solution was added to each well in the lower chamber, and the fluorescence signal measured on a Spectrafluor Plus fluorescence plate reader (TECAN, Durham, N.C.). The degree of inhibition was determined by comparing migration signals between compound-treated and untreated cells. IC50 calculation was further performed by non-linear squares regression analysis using Graphpad Prism (Graphpad Software, San Diego, Calif.).
Calcium flux assay measures an increase in intracellular calcium following ligand-induced receptor activation. In the screen of CCR9 antagonists, it was used as a secondary assay carried out on a FLIPR® machine (Molecular Devices, Mountain View, Calif.). To begin an assay, MOLT-4 cells were harvested by centrifugation of cell suspension, and resuspended to 1.5×10^6 cells/mL in HBSS (with 1% fetal calf serum). Cells were then labeled with a calcium indicator dye Fluo-4 AM for 45 minutes at 37° C. with gentle shaking. Following incubation, cells were pelletted, washed once with HBSS and resuspended in the same buffer at a density of 1.6×10^6 cells/mL. One hundred microliters of labeled cells were mixed with […] of test compound at the appropriate concentrations on an assay plate. Chemokine protein TECK was added at a final concentration of 25 nM to activate the receptor. The degree of inhibition was determined by comparing calcium signals between compound-treated and untreated cells. IC50 calculations were further performed by non-linear squares regression analysis using Graphpad Prism (Graphpad Software, San Diego, Calif.).
In the table below, structures and activity are provided for representative compounds described herein. Activity is provided as follows for either or both of the chemotaxis assay and/or calcium mobilization assays, described above: + 1000 nM<IC50<10000 nM; ++, 100 nM<IC50<1000 nM; and +++, IC50<100 nM.
On the technique in general: Calcium flux is commonly read through the fluorescence of an indicator in the cells.

The subject of data set [2] is MDR1α-knockout mice. The experiment in a line: in vivo efficacy study in MDR1α-knockout mice (spontaneous colitis, delay of disease onset). The note with it: female MDR1α-knockout mice, 50 mg/kg twice a day intraperitoneal. The text has this:
The MDR1α-knockout mice, which lack the P-glycoprotein gene, spontaneously develop colitis under specific pathogen-free condition. The pathology in these animals has been characterized as Th1-type T cell-mediated inflammation similar to ulcerative colitis in humans. Disease normally begins to develop at around 8-10 weeks after birth. But the ages at which disease emerges and the ultimate penetrance level often vary considerably among different animal facilities.
In a study using the MDR1α-knockout mice, the known compound shown below was tested for its ability to delay disease onset during a short treatment regimen.
This compound is structurally similar to the claimed modulators (I) of the present invention. Female mice (n=15) were dosed with 50 mg/kg twice a day by intraperitonial injection, starting at age 13 weeks for 14 consecutive days. The study was terminated when the mice reached age 17 weeks at which point the disease penetrance level measured by diarrhea incidence reached 55%. […] This protection extended one to two weeks after treatment stopped (FIG. 1).

Molecules are shown by their SMILES.

Broadly, the IC50 is the concentration needed to halve the response being measured.

As for `CC(C)(C)c1ccc(S(=O)(=O)Nc2ccc(Cl)cc2C(=O)c2ccccc2)cc1`, the IC50 in data set [1] was below 100 nM.
`COc1ccc(S(=O)(=O)Nc2ccc(Br)cc2C(=O)c2ccccc2)cc1`: in data set [1], the IC50 was below 100 nM.
On the same count and under the same terms, the result for `CC(C)(C)c1ccc(S(=O)(=O)Nc2cc(Cl)ccc2C(=O)c2ccccc2)cc1` reads below 100 nM; that for `COc1ccc(S(=O)(=O)Nc2ccc(F)cc2C(=O)c2ccccc2)cc1`, below 100 nM; that for `CS(=O)(=O)c1ccc(S(=O)(=O)Nc2ccc(Cl)cc2C(=O)c2ccccc2)cc1`, below 100 nM.
`O=C(c1ccccc1)c1cc(Cl)ccc1NS(=O)(=O)c1ccc(-c2cnco2)cc1`: the half-inhibitory concentration (IC50) in data set [1] was below 100 nM.
Same read-out and setting: under `C=Cc1ccc(S(=O)(=O)Nc2ccc(Cl)cc2C(=O)c2ccccc2)cc1` stands below 100 nM; under `O=C(c1ccccc1)c1cc(Cl)ccc1NS(=O)(=O)c1ccc(I)cc1`, below 100 nM.
The same measure, in the same setting: under `CCc1ccc(S(=O)(=O)Nc2ccc(Br)cc2C(=O)c2ccccc2)cc1` stands below 100 nM; under `O=C(c1ccccc1)c1cc(Cl)ccc1NS(=O)(=O)c1ccc(C(F)(F)F)cc1`, below 100 nM.
Turning to `O=C(c1ccccc1)c1cc(Br)ccc1NS(=O)(=O)c1ccc(-c2cocn2)cc1`, in data set [1], the IC50 was below 100 nM.
On the same count and under the same terms, under `CCc1ccc(S(=O)(=O)Nc2ccc(Cl)cc2C(=O)c2ccccc2)cc1` stands below 100 nM.
Same read-out and setting: the result for `CC(C)Oc1ccc(S(=O)(=O)Nc2ccc(Cl)cc2C(=O)c2ccccc2)cc1` reads below 100 nM.
Consider `CC(=O)c1ccc(S(=O)(=O)Nc2ccc(Br)cc2C(=O)c2ccccc2)cc1`, for which, in data set [1], the IC50 was below 100 nM.
Same read-out and setting: the result for `O=C(c1ccccc1)c1cc(Cl)ccc1NS(=O)(=O)c1ccc(OC(F)(F)F)cc1` reads below 100 nM; that for `COC(=O)CCc1ccc(S(=O)(=O)Nc2ccc(Cl)cc2C(=O)c2ccccc2)cc1`, below 100 nM.
The same measure, in the same setting: under `CC(C)(C)c1ccc(S(=O)(=O)Nc2ccc(Br)cc2C(=O)c2ccccc2)cc1` stands below 100 nM.
Still for that read-out and setting: under `CC(=O)c1ccc(S(=O)(=O)Nc2ccc(Cl)cc2C(=O)c2ccccc2)cc1` stands below 100 nM; under `CCC(C)(C)c1ccc(S(=O)(=O)Nc2ccc(Cl)cc2C(=O)c2ccccc2)cc1`, below 100 nM; under `CCCCc1ccc(S(=O)(=O)Nc2ccc(Cl)cc2C(=O)c2ccccc2)cc1`, 100 to 1000 nM.
Turning to `O=C(c1ccccc1)c1cc(Cl)ccc1NS(=O)(=O)c1ccc(-c2cccs2)cc1`, the IC50 in data set [1] was in the range of 100 to 1000 nM.
Still for that read-out and setting: under `O=C(c1ccccc1)c1cc(Cl)ccc1NS(=O)(=O)c1ccc(Nc2cccnc2)cc1` stands 100 to 1000 nM; under `CC(C)(C)c1ccc(S(=O)(=O)Nc2ccc(Cl)cc2C(=O)c2ccc(F)cc2)cc1`, 100 to 1000 nM; under `O=C(c1ccccc1)c1cc(Cl)ccc1NS(=O)(=O)c1cccc(F)c1`, 100 to 1000 nM.
On to `O=C(c1ccccc1)c1cc(Cl)ccc1NS(=O)(=O)c1ccc(Br)cc1`, for which the IC50 in data set [1] fell in the range of 100 to 1000 nM.
As to `N#Cc1cccc(S(=O)(=O)Nc2ccc(Cl)cc2C(=O)c2ccccc2)c1`, the IC50 in data set [1] lay in the range of 100 to 1000 nM.
On the same count and under the same terms, the result for `CC(C)c1ccc(S(=O)(=O)Nc2ccc(Cl)cc2C(=O)c2ccccc2)cc1` reads 100 to 1000 nM.
As to `O=C(c1ccccc1)c1cc(Cl)ccc1NS(=O)(=O)c1ccc(C#Cc2ccccc2)cc1`, the IC50 in data set [1] lay within 100 to 1000 nM.
For the compound `O=C(c1ccccc1)c1cc(Cl)ccc1NS(=O)(=O)c1ccc2c(c1)CCO2`, the IC50 in data set [1] fell in the range of 100 to 1000 nM.
The same measure, in the same setting: under `CC(=O)Nc1ccc(S(=O)(=O)Nc2ccc(Cl)cc2C(=O)c2ccccc2)cc1` stands 100 to 1000 nM; under `COc1ccc(S(=O)(=O)Nc2cc(Br)ccc2C(=O)c2ccccc2)cc1`, 100 to 1000 nM.
In the case of `O=C(c1ccccc1)c1cc(Cl)ccc1NS(=O)(=O)c1ccc(F)cc1`, the IC50 in data set [1] fell in the range of 100 to 1000 nM.
Regarding `CC(=O)Nc1ccc(S(=O)(=O)Nc2ccc(Cl)cc2C(=O)c2ccccc2)cc1Cl`, in data set [1], the IC50 was 100 to 1000 nM.
The same measure, in the same setting: the result for `O=C(c1ccccc1)c1cc(Cl)ccc1NS(=O)(=O)c1ccc(-n2cccn2)cc1` reads 100 to 1000 nM; that for `N#Cc1ccc(S(=O)(=O)Nc2ccc(Cl)cc2C(=O)c2ccccc2)cc1`, 100 to 1000 nM.
On the same count and under the same terms, the result for `CCCCOc1ccc(S(=O)(=O)Nc2ccc(Cl)cc2C(=O)c2ccccc2)cc1` reads 1000 to 10000 nM; that for `O=C(c1ccccc1)c1cc(Cl)ccc1NS(=O)(=O)c1ccccc1F`, 1000 to 10000 nM.
As for `O=C(c1ccccc1)c1cc(Cl)ccc1NS(=O)(=O)c1ccc(Cl)cc1Cl`, the IC50 in data set [1] is 1000 to 10000 nM.
On the same count and under the same terms, the result for `COc1ccc(-c2ccc(S(=O)(=O)Nc3ccc(Cl)cc3C(=O)c3ccccc3)cc2)cc1` reads 1000 to 10000 nM; that for `O=C(c1ccccc1)c1cc(Cl)ccc1NS(=O)(=O)c1ccc(Cl)c(Cl)c1`, 1000 to 10000 nM.
Regarding `COc1ccc(S(=O)(=O)Nc2ccc(Cl)cc2C(=O)c2ccccc2F)cc1`, the IC50 in data set [1] was 1000 to 10000 nM.
Still for that read-out and setting: under `COc1ccc(S(=O)(=O)Nc2ccc(OC)cc2C(=O)c2ccccc2)cc1` stands 1000 to 10000 nM; under `COc1cccc(S(=O)(=O)Nc2ccc(Cl)cc2C(=O)c2ccccc2)c1`, 1000 to 10000 nM.
For the compound `COc1ccc(OC)c(S(=O)(=O)Nc2ccc(Cl)cc2C(=O)c2ccccc2)c1`, the IC50 in data set [1] is 1000 to 10000 nM.
On the same count and under the same terms, under `O=C(c1ccccc1)c1cc(Cl)ccc1NS(=O)(=O)c1cccc(C(F)(F)F)c1` stands 1000 to 10000 nM.
Take `COc1ccc(S(=O)(=O)Nc2ccc(Cl)cc2C(=O)c2ccccc2)cc1` [drawing 79]: in data set [2] (14 consecutive days), the “duration of protection after treatment stopped” value is “one to two”. Besides, in data set [2] (14 consecutive days from age 13 weeks), the tolerability entry is reported as “well tolerated”. Further, in data set [2] (14 consecutive days from age 13 weeks, compared with vehicle), the “onset of IBD symptoms (diarrhea incidence)” value is on record as “significant delay in the onset of IBD symptoms”.
Turning to `COc1ccc(S(=O)(=O)Nc2ccc(Cl)cc2C(=O)c2ccccc2)cc1` [drawing 93], in data set [1], the IC50 was below 100 nM.
